Assay results as given in patent US6140509A (priority 1999, dated 2000).
Positions count from the first letter of the chain named.

Experiments:
[1] = biological target: T1, endogenous human 5-HT2C receptor (Homo sapiens, UniProt P28335)
T1 sequence (P28335 33-458): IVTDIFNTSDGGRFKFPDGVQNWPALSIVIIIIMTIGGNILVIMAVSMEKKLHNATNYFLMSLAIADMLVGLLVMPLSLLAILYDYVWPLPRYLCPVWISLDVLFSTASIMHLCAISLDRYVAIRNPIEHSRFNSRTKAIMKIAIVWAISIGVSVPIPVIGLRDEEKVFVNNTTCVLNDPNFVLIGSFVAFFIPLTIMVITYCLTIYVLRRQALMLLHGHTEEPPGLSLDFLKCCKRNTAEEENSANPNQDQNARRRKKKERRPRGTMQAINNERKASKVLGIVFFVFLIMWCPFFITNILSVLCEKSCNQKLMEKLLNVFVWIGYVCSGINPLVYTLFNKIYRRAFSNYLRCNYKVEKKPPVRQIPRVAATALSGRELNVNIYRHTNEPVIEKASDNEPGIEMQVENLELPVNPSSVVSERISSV

[2] = biological target: T2, constitutively active mutant human 5HT2C receptor AP-1 (Homo sapiens, UniProt P28335, S310K); assay: [35S]GTPγS binding assay, AP-1 membranes; format: biochemical; conditions: 30 μM mianserin, 293T cells, Wallac scintistrips
T2 construct: expressed in transfected cells
T2 sequence (P28335 33-458 S310K): T1 sequence (P28335 33-458) with S278K

[3] = tested on: Adult male Sprague-Dawley rats; assay: Amphetamine-stimulated locomotor activity; format: in vivo
Excerpt: A 5HT2A receptor antagonist or inverse agonist is expected to decrease amphetamine-stimulated locomotion without affecting baseline locomotion. See, for example, Soresnon, et al, 266(2) J. Pharmacol. Exp. Ther. 684 (1993). […] For the following study, the following parameters and protocol were utilized:
Adult male Sprague-Dawley rats were utilized for these studies. Animals were housed in groups of 2-3 in hanging plastic cages with food and water available at all times. Animals were weighed and handled for at least one day prior to surgery and throughout the studies. For these studies, Vehicle consisted of 90% ethanol (100%) and 10% water.
A San Diego Instruments Flex Field apparatus was used to quantify baseline and amphetamine-stimulated locomotor activity. This apparatus consists of four 16"×16" clear plastic open fields. Photocell arrays (16 in each dimension) interfaced with a personal computer to automatically quantify activity. Several measures of activity can be assessed with the apparatus, including total photocell beam breaks. Animals (vehicle control and Compound treated) were injected s.c. 30 minutes prior to initiation of analysis. Following this 30 minute period, animals were placed individually into an open field and baseline activity was assessed for 30 minutes (habituation phase). […]

[4] = tested on: human mutated 5HT2A receptor, AP-3; assay: Receptor-mediated inositol phosphate (IP3) accumulation, AP-3; format: cell-based; conditions: statement in words
[5] = tested on: 5HT2A receptors (cerebral cortex); assay: I125-LSD displacement from brain sections, cortex (autoradiography); format: binding, Sprague-Dawley rats; conditions: 1 micromolar compound, 1 nanomolar I125-LSD, 30 minutes, room temperature

## CN1CCN2c3ccccc3Cc3ccccc3C2C1 (centres unmarked) [mianserin]
[1]; 30 μM mianserin, COS cells
  inhibition of serotonin-stimulated [35S]GTPγS binding (FIG. 9): completely inhibited
[1]; endogenous human 5-HT2C per text
  inhibition of serotonin-stimulated [35S]GTPγS binding (FIG. 10): inhibits this response
[1]; no agonist, endogenous human 5-HT2C per text
  inhibition of basal constitutive [35S]GTPγS binding (FIG. 10): acts as a partial inverse agonist by inhibiting the basal constitutive binding of [^35 S]GTPγS
[2]
  inhibition of serotonin-stimulated [35S]GTPγS binding, AP-1 (FIG. 10): inhibition

## Cn1cc(Br)c(-c2cccc(NC(=O)c3cccs3)c2)n1 [Compound 116102, N-[3-(4-bromo-1-methylpyrazol-3-yl)phenyl][2-thienyl]carboxamide]
[3]; 116102 s.c. 0.1, 1.0, 5.0 mg/kg, d-amphetamine sulfate 1.0 mg/kg
  amphetamine-stimulated locomotion (photobeam breaks): a decrease in the amphetamine-stimulated locomotion
[3]; 116102 s.c. 0.1-10 mg/kg, FIGS. 17A-C
  dose-response pattern of locomotor activity: a general "inverted U" shaped pattern was observed
[4]
  inverse agonist activity at the human 5HT2A receptor: potent inverse agonist

## COc1ccc(OC(=O)Nc2cccc(-c3nn(C)cc3Br)c2)cc1 [Compound 116100, N-[3-(4-bromo-1-methylpyrazol-3-yl)phenyl][4-methoxyphenoxy]carboxamide]
[5]
  displacement of I125-LSD from cortex (5HT2A): appears to selectively displace the I^125 -LSD from the cortex (5HT2A)
